Source: patent publication US20030069166A1, “Stimulative agent and stimulative perfume composition” (Shiseido Co., Ltd., priority 1999, published 2003)

Columns and labels:
[1] = tested on: Contingent Negative Variation (CNV), electric potential of the brain; assay: Contingent Negative Variation (CNV) measurement while inhaling the aroma sample; format: in vivo, human; conditions: for Stimulative or sedative effect by CNV (FIG. 1): 1% ethanol solution of each sample, 5 healthy adult women, over 100% of CNV = stimulative, less than 100% = sedative
Description: First of all, the test method of this invention is explained. The change of negative electric potential of brain called Contingent Negative Variation (CNV) was measured. CNV is the gradual fluctuation of electric potential of the brain. It is related to the fluctuation of the mental process and the conscious level such as an attention, expectation and anticipation.
An experiment to study perfume effects was as follows. After two seconds from a warning sound stimulation, a starting signal light of an exercise is turned on. Then, as soon as light is observed, the pushing button behavior is demanded as exercise reaction. In this series of steps, a sample of aroma is located at 10cm before nose tip. The aroma can be always recognized along with breathing. A recording electrode for the CNV measurement is fixed to the frontal region of the head. An electric potential between the frontal region and ear lobe is measured.
The fluctuation area of this section is expressed as comparative percentage (%) to 100% of blank (odorless stimulation). Also, aroma was presented in accordance with Latin square method.

[2] = tested on: Contingent Negative Variation (CNV), electric potential of the brain; conditions: administered drug; reported in the literature; cited from earlier work

Compound	Change of amplitude of CNV after administration [2]	Stimulative or sedative effect by CNV (FIG. 1) [1]	further results
CC=Cc1ccc(OC)cc1 [anethole]			Measured value of CNV ([1]; ethanol solution including 1 wt % of each sample, % relative to 100% of blank (odorless stimulation)): 108%
O=C1CN=C(c2ccccc2)c2cc([N+](=O)[O-])ccc2N1 [nitrazepam]	decrease of amplitude of CNV		
Cn1c(=O)c2c(ncn2C)n(C)c1=O [caffeine]	increase of amplitude of CNV		
COc1cc(C)cc(OC)c1 [DMB, 1,3-dimethoxy-5-methylbenzene]		sedative effect	
COc1ccc(C=O)cc1 [anisaldehyde, p-methoxy benzaldehyde]		much stronger stimulative effect in comparison with conventional lemon oil	Effective amount of anisaldehyde in the perfume ingredients ([1]; concluded from Table 2 (anisaldehyde in anethole)): ≥ 1 wt %
